How the values were obtained:
Test in all cases: relative viability (nuclei count vs DMSO), 5 days (fraction); higher = more cells survive
PC-14 = test system: PC-14
In short: (§1)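 The day after seeding in 1536-well plates, lung cancer cell lines were treated by pin tool with a single drug, or with a fixed anchor-drug dose together with five library-drug doses (not always all listed) in √10 steps. After 5 days, a combined fix-and-stain solution (final 0.05% Triton X-100, 1% formaldehyde, 1 ug/ml Hoechst) was added. Nuclei counted on 4× images gave relative viability as treated counts over vehicle counts, reported as the median of duplicate plates.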

IA-LM = test system: IA-LM
In short: as §1

NCI-H1299 = test system: NCI-H1299
In short: as §1

Calu-6 = test system: Calu-6
In short: as §1

NCI-H596 = test system: NCI-H596
In short: as §1

NCI-H1666 = test system: NCI-H1666
In short: as §1

NCI-H661 = test system: NCI-H661
In short: as §1

SK-LU-1 = test system: SK-LU-1
In short: as §1

NCI-H1703 = test system: NCI-H1703
In short: as §1

EBC-1 = test system: EBC-1
In short: as §1

A549 = test system: A549
In short: as §1

NCI-H1944 = test system: NCI-H1944
In short: as §1

SMILES: Cc1cn(-c2cc(NC(=O)c3ccc(C)c(Nc4nccc(-c5cccnc5)n4)c3)cc(C(F)(F)F)c2)cn1 [Nilotinib] + CC(C)C[C@H](NC(=O)[C@H](Cc1ccccc1)NC(=O)c1cnccn1)B(O)O [Bortezomib] (partner 0.002 µM)
- relative viability (PC-14; first compound 0.003162 µM): 1.05
- relative viability (PC-14; first compound 0.01 µM): 1.02
- relative viability (PC-14; first compound 0.03162 µM): 0.797
- relative viability (PC-14; first compound 0.1 µM): 0.867
- relative viability (IA-LM; first compound 0.001 µM): 0.616
- relative viability (IA-LM; first compound 0.003162 µM): 0.698
- relative viability (IA-LM; first compound 0.01 µM): 0.685
- relative viability (IA-LM; first compound 0.03162 µM): 0.808
- relative viability (IA-LM; first compound 0.1 µM): 0.714
- relative viability (NCI-H1299; first compound 0.003162 µM): 1.07
- relative viability (NCI-H1299; first compound 0.01 µM): 1.05
- relative viability (NCI-H1299; first compound 0.03162 µM): 1.01
- relative viability (NCI-H1299; first compound 0.1 µM): 0.933
- relative viability (Calu-6; first compound 0.001 µM): 0.934
- relative viability (Calu-6; first compound 0.003162 µM): 1.02
- relative viability (Calu-6; first compound 0.01 µM): 0.929
- relative viability (Calu-6; first compound 0.03162 µM): 1.02
- relative viability (Calu-6; first compound 0.1 µM): 1.01
- relative viability (NCI-H596; first compound 0.001 µM): 1.16
- relative viability (NCI-H596; first compound 0.003162 µM): 1.03
- relative viability (NCI-H596; first compound 0.01 µM): 1.18
- relative viability (NCI-H596; first compound 0.03162 µM): 1.21
- relative viability (NCI-H596; first compound 0.1 µM): 0.96
- relative viability (NCI-H1666; first compound 0.001 µM): 0.774
- relative viability (NCI-H1666; first compound 0.01 µM): 0.649
- relative viability (NCI-H1666; first compound 0.03162 µM): 0.985
- relative viability (NCI-H1666; first compound 0.1 µM): 0.829
- relative viability (NCI-H661; first compound 0.001 µM): 0.752
- relative viability (NCI-H661; first compound 0.003162 µM): 0.831
- relative viability (NCI-H661; first compound 0.01 µM): 1.02
- relative viability (NCI-H661; first compound 0.03162 µM): 0.642
- relative viability (NCI-H661; first compound 0.1 µM): 0.815
- relative viability (SK-LU-1; first compound 0.001 µM): 1.29
- relative viability (SK-LU-1; first compound 0.01 µM): 0.831
- relative viability (SK-LU-1; first compound 0.03162 µM): 1
- relative viability (SK-LU-1; first compound 0.1 µM): 0.949
- relative viability (NCI-H1703; first compound 0.001 µM): 0.232
- relative viability (NCI-H1703; first compound 0.003162 µM): 0.208
- relative viability (NCI-H1703; first compound 0.01 µM): 0.148
- relative viability (NCI-H1703; first compound 0.03162 µM): 0.141
- relative viability (NCI-H1703; first compound 0.1 µM): 0.125
- relative viability (EBC-1; first compound 0.001 µM): 0.488
- relative viability (EBC-1; first compound 0.003162 µM): 0.55
- relative viability (EBC-1; first compound 0.01 µM): 0.417
- relative viability (EBC-1; first compound 0.03162 µM): 0.437
- relative viability (EBC-1; first compound 0.1 µM): 0.241

SMILES: Cc1cn(-c2cc(NC(=O)c3ccc(C)c(Nc4nccc(-c5cccnc5)n4)c3)cc(C(F)(F)F)c2)cn1 [Nilotinib] + Cc1nc(NC(=O)N2CCC[C@H]2C(N)=O)sc1-c1ccnc(C(C)(C)C(F)(F)F)c1 [Alpelisib] (partner 2 µM)
- relative viability (PC-14; first compound 0.003162 µM): 1.08
- relative viability (PC-14; first compound 0.03162 µM): 0.547
- relative viability (PC-14; first compound 0.1 µM): 0.888
- relative viability (IA-LM; first compound 0.001 µM): 0.653
- relative viability (IA-LM; first compound 0.003162 µM): 0.679
- relative viability (IA-LM; first compound 0.01 µM): 0.781
- relative viability (IA-LM; first compound 0.03162 µM): 0.606
- relative viability (IA-LM; first compound 0.1 µM): 0.963
- relative viability (A549; first compound 0.001 µM): 0.721
- relative viability (A549; first compound 0.003162 µM): 0.817
- relative viability (A549; first compound 0.01 µM): 1.02
- relative viability (A549; first compound 0.03162 µM): 0.543
- relative viability (A549; first compound 0.1 µM): 0.649
- relative viability (Calu-6; first compound 0.001 µM): 1.11
- relative viability (Calu-6; first compound 0.01 µM): 1.03
- relative viability (Calu-6; first compound 0.03162 µM): 0.989
- relative viability (Calu-6; first compound 0.1 µM): 0.958
- relative viability (NCI-H596; first compound 0.001 µM): 0.457
- relative viability (NCI-H596; first compound 0.003162 µM): 0.541
- relative viability (NCI-H596; first compound 0.01 µM): 0.481
- relative viability (NCI-H596; first compound 0.03162 µM): 0.299
- relative viability (NCI-H596; first compound 0.1 µM): 0.478
- relative viability (NCI-H1666; first compound 0.001 µM): 0.877
- relative viability (NCI-H1666; first compound 0.003162 µM): 1.14
- relative viability (NCI-H1666; first compound 0.01 µM): 0.956
- relative viability (NCI-H1666; first compound 0.03162 µM): 0.831
- relative viability (NCI-H1666; first compound 0.1 µM): 0.856
- relative viability (NCI-H661; first compound 0.001 µM): 0.647
- relative viability (NCI-H661; first compound 0.003162 µM): 0.592
- relative viability (NCI-H661; first compound 0.01 µM): 0.721
- relative viability (NCI-H661; first compound 0.03162 µM): 0.366
- relative viability (NCI-H661; first compound 0.1 µM): 0.651
- relative viability (NCI-H1944; first compound 0.001 µM): 0.867
- relative viability (NCI-H1944; first compound 0.003162 µM): 0.876
- relative viability (NCI-H1944; first compound 0.01 µM): 1.02
- relative viability (NCI-H1944; first compound 0.03162 µM): 0.837
- relative viability (NCI-H1944; first compound 0.1 µM): 0.767
- relative viability (SK-LU-1; first compound 0.001 µM): 0.929
- relative viability (SK-LU-1; first compound 0.003162 µM): 1.03
- relative viability (SK-LU-1; first compound 0.01 µM): 1.06
- relative viability (SK-LU-1; first compound 0.03162 µM): 0.632
- relative viability (SK-LU-1; first compound 0.1 µM): 0.719
- relative viability (NCI-H1703; first compound 0.001 µM): 0.338
- relative viability (NCI-H1703; first compound 0.003162 µM): 0.249
- relative viability (NCI-H1703; first compound 0.01 µM): 0.171
- relative viability (NCI-H1703; first compound 0.03162 µM): 0.166
- relative viability (NCI-H1703; first compound 0.1 µM): 0.175
- relative viability (EBC-1; first compound 0.001 µM): 0.787
- relative viability (EBC-1; first compound 0.003162 µM): 0.796
- relative viability (EBC-1; first compound 0.01 µM): 0.811
- relative viability (EBC-1; first compound 0.03162 µM): 0.566
- relative viability (EBC-1; first compound 0.1 µM): 0.689

SMILES: CN1CCN(CCOc2cc(OC3CCOCC3)c3c(Nc4c(Cl)ccc5c4OCO5)ncnc3c2)CC1 [Saracatinib] + CC(C)C[C@H](NC(=O)[C@H](Cc1ccccc1)NC(=O)c1cnccn1)B(O)O [Bortezomib] (partner 0.002 µM)
- relative viability (PC-14; first compound 0.02 µM): 0.941
- relative viability (PC-14; first compound 0.2 µM): 0.685
- relative viability (PC-14; first compound 0.6325 µM): 0.261
- relative viability (PC-14; first compound 2 µM): 0.169
- relative viability (IA-LM; first compound 0.02 µM): 0.87
- relative viability (IA-LM; first compound 0.6325 µM): 1.31
- relative viability (IA-LM; first compound 2 µM): 0.909
- relative viability (NCI-H1299; first compound 0.02 µM): 1.05
- relative viability (NCI-H1299; first compound 0.2 µM): 1.03
- relative viability (NCI-H1299; first compound 0.6325 µM): 1.01
- relative viability (NCI-H1299; first compound 2 µM): 1.09
- relative viability (Calu-6; first compound 0.02 µM): 0.939
- relative viability (Calu-6; first compound 0.2 µM): 0.796
- relative viability (Calu-6; first compound 0.6325 µM): 0.807
- relative viability (Calu-6; first compound 2 µM): 0.656
- relative viability (NCI-H596; first compound 0.02 µM): 0.98
- relative viability (NCI-H596; first compound 0.2 µM): 0.999
- relative viability (NCI-H596; first compound 0.6325 µM): 1.01
- relative viability (NCI-H596; first compound 2 µM): 0.814
- relative viability (NCI-H1666; first compound 0.02 µM): 0.898
- relative viability (NCI-H1666; first compound 0.2 µM): 0.978
- relative viability (NCI-H1666; first compound 0.6325 µM): 1.07
- relative viability (NCI-H1666; first compound 2 µM): 1.06
- relative viability (NCI-H661; first compound 0.02 µM): 0.831
- relative viability (NCI-H661; first compound 0.2 µM): 0.849
- relative viability (NCI-H661; first compound 0.6325 µM): 0.837
- relative viability (NCI-H661; first compound 2 µM): 0.373
- relative viability (SK-LU-1; first compound 0.02 µM): 1.31
- relative viability (SK-LU-1; first compound 0.2 µM): 1.19
- relative viability (SK-LU-1; first compound 0.6325 µM): 0.829
- relative viability (SK-LU-1; first compound 2 µM): 0.735
- relative viability (NCI-H1703; first compound 0.02 µM): 0.304
- relative viability (NCI-H1703; first compound 0.2 µM): 0.314
- relative viability (NCI-H1703; first compound 0.6325 µM): 0.293
- relative viability (NCI-H1703; first compound 2 µM): 0.22
- relative viability (EBC-1; first compound 0.02 µM): 0.553
- relative viability (EBC-1; first compound 0.2 µM): 0.484
- relative viability (EBC-1; first compound 0.6325 µM): 0.628
- relative viability (EBC-1; first compound 2 µM): 0.531
